The IC50 is the concentration that gives 50% inhibition.

Test [1] has as its system symmetrical dimethylation of arginine (Histone H4R3) in cell line TE11. Nature of the test: PRMT5 Biomarker Assay (Di-Methyl Histone H4R3 ELISA). It counts as cell-based. As to conditions: Homo sapiens, TE-11; TE11 cells, 72 h incubation, EpiQuik Global Di-Methyl Histone H4R3 ELISA, corrected for total protein. As for the experimental part: Compounds of the invention may be tested for potency to inhibit symmetrical […] of arginine in the following assay:
The cell line TE11 was seeded at a density of 12,000 cells per well in 96 well tissue culture plates in DME medium and 10% foetal bovine serum, and allowed to adhere overnight under standard culture conditions (37° C., 5% CO2). Compound dilutions prepared in DMSO were added to the medium, with negative control wells reserved for treatment with DMSO only and positive controls receiving a potent PRMT5 inhibitor. The concentration of the inhibitor had been previously determined to give maximum inhibition of the methylation. After incubation for 72 h, cells were washed twice in ice-cold PBS, lysed in lysis buffer (20 mM Tris pH 7.4, 135 mM NaCl, 1.5 mM MgCl2, 1 mM EGTA, 10% glycerol and 1% Triton-X100), centrifuged at 15,000×g and the supernatants collected for subsequent analysis. The methylation level was determined using the EpiQuik™ Global Di-Methyl Histone H4R3 Quantification ELISA Kit (Epigentek, Farmingdale, N.Y.) as per the manufacturer's recommendations; in parallel the total protein amount in the lysate was quantified using a Lowry protein assay. […]

In test [2] the target is Full-length PRMT5 enzyme co-expressed with MEP50 (Homo sapiens (Human), UniProt O14744). Briefly: PRMT5 Biochemical Assay. To be noted: 200 nM peptide substrate, 1 μM S-Adenosyl methionine, 4 hours at 37° C., Transcreener EPIGEN fluorescence polarisation. An excerpt:
Compounds of the invention may be tested for in vitro activity in the following assay: A histone H4 derived peptide is used as substrate (amino acid sequence: […]NH2). Full-length PRMT5 enzyme (NCBI Reference sequence NP_006100.2) was co-expressed with Hiss-MEP50 in insect cells and purified via Nickel immobilized metal affinity and gel filtration chromatography (“the enzyme”).
The […] assay reactions are run in Greiner brand black 384-well low volume plates. All reactions contained assay buffer (phosphate buffered saline, 0.01% (v/v) Tween-20, 0.01% (w/v) albumin from chicken egg white, 1 mM dithiothreitol, 200 nM peptide substrate, 1 μM S-Adenosyl methionine, and 15 ng/reaction enzyme, with the enzyme being omitted from negative control reactions. Compounds were added in a volume of 100 nL from dilution series prepared in DMSO, positive and negative control reactions receiving the same volume DMSO without compound. The plates were sealed with adhesive seals and incubated for 4 hours at 37° C. Reaction progress was measured using the Transcreener™ EPIGEN methyltransferase assay (BellBrook Labs, Madison, Wis.) as recommended by the manufacturer. To each reaction 2 μL detection mix were added, containing coupling enzymes, fluorescence polarisation tracer, and AMP antibody. […]

In test [3] the test system is symmetrical dimethylation of arginine (Histone H4 Arginine 3) in cell line TE11. Briefly: Revised PRMT5 Biomarker Assay. Type of test: cell-based. To be noted: Homo sapiens, TE-11; TE11 cells, 72 hours incubation, anti-Di-Methyl Histone H4 Arginine 3 immunofluorescence, plate-reader based. As for the experimental part: Compounds of the invention may be tested for potency to inhibit symmetrical dimethylation of arginine in the following assay:
The cell line TE11 was seeded at a density of 6,000 cells per well in 96 well optical quality tissue culture plates in DME medium and 10% foetal bovine serum, and allowed to adhere for 5 hours under standard culture conditions (37 degree Celsius, 5% CO2). Compound dilutions prepared in DMSO were added to the medium, with negative control wells reserved for treatment with DMSO only and positive controls receiving a potent PRMT5 inhibitor compound at 1 μM concentration. After incubation for 72 hours, the cells were fixed with 3.7% formaldehyde in PBS for 30 minutes at room temperature, washed with phosphate buffer saline and blocked with Odyssey blocking buffer (LI-COR, Lincoln, Nebr.). Rabbit anti-Di-Methyl Histone H4 Arginine 3 specific antibody (Epigentek) in Odyssey blocking buffer was added and incubated for 14 hours at 4 degree Celsius. After washing, anti-rabbit secondary antibody labelled with Alexa647 dye (LifeTechnologies) and Hoechst 33342 (1 μg/mL, SigmaAldrich) were added for 1 hour incubation. Plates were washed and read on a PerkinElmer Envision 2103 in fluorescence intensity scanning mode (24 scans across the well area). The methylation level information was corrected for the number of cells as expressed by the Hoechst 33342 stain, converted to percent inhibition relative to controls on the same plate and the data fitted against a four-parameter logistic model to determine the 50% inhibitory concentration (IC50 plate-reader based). Alternatively, the plates were imaged on a PerkinElmer Phenix high content imaging platform. Using a Columbus image analysis pipeline, individual nuclei were located by Hoechst 33342 stain and the methylation level was calculated from the Alexa647-related intensity in the same area. The resulting mean intensity per cell was directly converted to percent inhibition as outlined above (IC50, imager based)).

Full-length PRMT5 enzyme co-expressed with MEP50, sequence (O14744 whole entry): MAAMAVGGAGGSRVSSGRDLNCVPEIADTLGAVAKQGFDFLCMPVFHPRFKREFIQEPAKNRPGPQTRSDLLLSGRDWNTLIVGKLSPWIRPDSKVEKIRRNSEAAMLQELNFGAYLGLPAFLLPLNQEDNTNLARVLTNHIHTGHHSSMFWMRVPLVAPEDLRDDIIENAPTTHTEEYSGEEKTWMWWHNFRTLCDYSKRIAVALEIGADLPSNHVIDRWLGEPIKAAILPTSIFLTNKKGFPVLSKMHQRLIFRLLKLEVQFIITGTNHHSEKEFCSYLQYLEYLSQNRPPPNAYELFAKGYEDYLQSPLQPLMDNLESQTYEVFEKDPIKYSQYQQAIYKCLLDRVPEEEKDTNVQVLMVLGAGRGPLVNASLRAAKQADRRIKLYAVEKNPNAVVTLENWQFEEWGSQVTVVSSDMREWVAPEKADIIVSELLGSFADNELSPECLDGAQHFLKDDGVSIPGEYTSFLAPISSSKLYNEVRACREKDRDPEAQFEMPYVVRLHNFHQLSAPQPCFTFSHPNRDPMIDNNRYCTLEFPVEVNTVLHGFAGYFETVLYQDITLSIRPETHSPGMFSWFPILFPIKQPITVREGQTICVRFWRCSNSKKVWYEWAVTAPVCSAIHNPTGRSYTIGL
Full-length PRMT5 enzyme co-expressed with MEP50, sequence (Q9BQA1 whole entry partner): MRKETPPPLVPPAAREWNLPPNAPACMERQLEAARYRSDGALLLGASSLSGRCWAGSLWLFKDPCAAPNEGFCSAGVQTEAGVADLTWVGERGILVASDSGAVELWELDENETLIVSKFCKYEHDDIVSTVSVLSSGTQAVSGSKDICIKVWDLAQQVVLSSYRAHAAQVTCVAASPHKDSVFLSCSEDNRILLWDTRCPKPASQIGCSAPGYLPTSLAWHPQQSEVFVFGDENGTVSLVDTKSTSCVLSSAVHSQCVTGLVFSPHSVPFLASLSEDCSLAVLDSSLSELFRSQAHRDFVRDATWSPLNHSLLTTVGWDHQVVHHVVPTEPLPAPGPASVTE

For `O=C(NCCC(O)CN1CCc2ccccc2C1)c1ccc(Cl)cc1` (stereo not drawn) [Compound 1, 4-Chloro-N-(4-(3,4-dihydroisoquinolin-2(1H)-yl)-3-hydroxybutyl)benzamide], the figures for the IC50 in test [1], in test [2] and in test [3] were 40.4 nM, 359 nM and 0.318 µM, respectively.
